Source: patent US12624038B2, “Molecules and methods related to treatment of uncontrolled cellular proliferation” (ST. JUDE CHILDREN'S RESEARCH HOSPITAL, priority 2019, dated 2026)
Where “and” joins values, the source holds several entries; their conditions need not be identical. Equal values may be shown once. Entries after “also recorded” stand apart in the source; their conditions may differ. Read-outs that look alike come from different tables or passages of the source.

What was measured:
JAK2 [1] = molecular target: T1, JAK2 (Homo sapiens, UniProt O60674); experiment: KdELECT Kd measurement (KINOMEscan platform), JAK2; type: binding; conditions: read-out: Kd to JAK family kinases, JAK2
T1 construct: purchased Eurofins DiscoveRx
T1 sequence (O60674 whole entry): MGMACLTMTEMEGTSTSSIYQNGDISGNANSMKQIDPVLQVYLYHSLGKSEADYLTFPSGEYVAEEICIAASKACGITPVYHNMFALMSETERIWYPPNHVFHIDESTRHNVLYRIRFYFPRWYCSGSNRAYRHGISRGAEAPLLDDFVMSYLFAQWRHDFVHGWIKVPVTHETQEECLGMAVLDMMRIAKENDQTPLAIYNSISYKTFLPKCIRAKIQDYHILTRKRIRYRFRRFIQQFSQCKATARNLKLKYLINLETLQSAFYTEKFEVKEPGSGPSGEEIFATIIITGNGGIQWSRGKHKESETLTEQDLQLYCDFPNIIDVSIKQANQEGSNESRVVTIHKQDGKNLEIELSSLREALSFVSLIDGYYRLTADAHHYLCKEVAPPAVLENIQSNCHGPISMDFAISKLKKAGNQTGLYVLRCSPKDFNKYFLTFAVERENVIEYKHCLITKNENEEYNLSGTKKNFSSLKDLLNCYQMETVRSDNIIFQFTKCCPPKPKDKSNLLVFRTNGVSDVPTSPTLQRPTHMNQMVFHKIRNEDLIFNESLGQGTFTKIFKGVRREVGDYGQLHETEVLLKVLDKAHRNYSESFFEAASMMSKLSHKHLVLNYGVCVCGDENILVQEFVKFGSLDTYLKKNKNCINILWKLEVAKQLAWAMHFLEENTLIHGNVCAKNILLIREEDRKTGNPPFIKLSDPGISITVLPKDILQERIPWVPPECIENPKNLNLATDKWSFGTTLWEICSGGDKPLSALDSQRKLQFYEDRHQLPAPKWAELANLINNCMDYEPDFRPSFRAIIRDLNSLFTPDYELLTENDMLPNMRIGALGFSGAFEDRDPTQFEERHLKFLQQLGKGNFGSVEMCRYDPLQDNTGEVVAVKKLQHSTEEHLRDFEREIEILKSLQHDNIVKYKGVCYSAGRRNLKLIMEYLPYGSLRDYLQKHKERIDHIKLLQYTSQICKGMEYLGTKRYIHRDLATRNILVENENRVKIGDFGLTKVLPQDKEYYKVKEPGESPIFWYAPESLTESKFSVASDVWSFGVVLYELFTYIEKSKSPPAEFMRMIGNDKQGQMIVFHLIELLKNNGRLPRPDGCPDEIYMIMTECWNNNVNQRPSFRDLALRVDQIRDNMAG

JAK2 [2] = molecular target: T2, JAK2 (Homo sapiens, UniProt O60674, I682F); experiment: Target degradation (Western Blot) in MHH-CALL-4 cells, JAK2; type: cell-based; conditions: 100 nM PROTAC at 24 h
T2 construct: endogenous in cells; host or cells: MHH-CALL-4
T2 sequence (O60674 whole entry I682F): as the sequence (O60674 whole entry) above, with I682F counted along it

GSPT1 = molecular target: T3, GSPT1 (Homo sapiens, UniProt P15170+Q96SW2); experiment: Target degradation (Western Blot) in MHH-CALL-4 cells, GSPT1; type: cell-based; conditions: for Target Degradation (Western Blot) GSPT1: 100 nM PROTAC at 24 h
T3 construct: endogenous in cells; host or cells: MHH-CALL-4
T3 sequence (P15170 whole entry): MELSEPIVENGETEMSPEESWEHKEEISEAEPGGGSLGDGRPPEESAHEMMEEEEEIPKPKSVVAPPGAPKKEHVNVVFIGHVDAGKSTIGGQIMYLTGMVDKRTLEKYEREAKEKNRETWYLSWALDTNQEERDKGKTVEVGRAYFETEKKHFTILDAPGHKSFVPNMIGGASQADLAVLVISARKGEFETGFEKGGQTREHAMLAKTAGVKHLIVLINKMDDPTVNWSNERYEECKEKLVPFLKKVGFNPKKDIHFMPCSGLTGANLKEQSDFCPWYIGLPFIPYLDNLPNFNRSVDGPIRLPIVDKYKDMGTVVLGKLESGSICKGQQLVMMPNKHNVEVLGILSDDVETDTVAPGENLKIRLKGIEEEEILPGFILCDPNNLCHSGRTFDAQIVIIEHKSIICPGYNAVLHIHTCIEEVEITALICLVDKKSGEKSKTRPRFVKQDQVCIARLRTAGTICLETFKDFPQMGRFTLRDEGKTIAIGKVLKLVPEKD
T3 sequence (Q96SW2 whole entry): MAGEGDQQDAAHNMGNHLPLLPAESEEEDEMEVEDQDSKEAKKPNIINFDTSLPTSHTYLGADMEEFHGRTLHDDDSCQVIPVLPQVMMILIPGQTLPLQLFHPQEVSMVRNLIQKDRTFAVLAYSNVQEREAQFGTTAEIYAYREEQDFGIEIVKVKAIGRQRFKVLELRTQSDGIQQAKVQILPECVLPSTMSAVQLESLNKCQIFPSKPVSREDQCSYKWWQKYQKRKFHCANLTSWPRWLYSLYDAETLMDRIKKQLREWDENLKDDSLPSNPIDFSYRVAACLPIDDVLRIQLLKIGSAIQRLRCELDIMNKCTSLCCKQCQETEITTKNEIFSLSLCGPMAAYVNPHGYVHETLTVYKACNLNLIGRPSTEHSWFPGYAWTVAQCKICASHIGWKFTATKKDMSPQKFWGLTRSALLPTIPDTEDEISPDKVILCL
T3 sequence (Q16531 whole entry partner): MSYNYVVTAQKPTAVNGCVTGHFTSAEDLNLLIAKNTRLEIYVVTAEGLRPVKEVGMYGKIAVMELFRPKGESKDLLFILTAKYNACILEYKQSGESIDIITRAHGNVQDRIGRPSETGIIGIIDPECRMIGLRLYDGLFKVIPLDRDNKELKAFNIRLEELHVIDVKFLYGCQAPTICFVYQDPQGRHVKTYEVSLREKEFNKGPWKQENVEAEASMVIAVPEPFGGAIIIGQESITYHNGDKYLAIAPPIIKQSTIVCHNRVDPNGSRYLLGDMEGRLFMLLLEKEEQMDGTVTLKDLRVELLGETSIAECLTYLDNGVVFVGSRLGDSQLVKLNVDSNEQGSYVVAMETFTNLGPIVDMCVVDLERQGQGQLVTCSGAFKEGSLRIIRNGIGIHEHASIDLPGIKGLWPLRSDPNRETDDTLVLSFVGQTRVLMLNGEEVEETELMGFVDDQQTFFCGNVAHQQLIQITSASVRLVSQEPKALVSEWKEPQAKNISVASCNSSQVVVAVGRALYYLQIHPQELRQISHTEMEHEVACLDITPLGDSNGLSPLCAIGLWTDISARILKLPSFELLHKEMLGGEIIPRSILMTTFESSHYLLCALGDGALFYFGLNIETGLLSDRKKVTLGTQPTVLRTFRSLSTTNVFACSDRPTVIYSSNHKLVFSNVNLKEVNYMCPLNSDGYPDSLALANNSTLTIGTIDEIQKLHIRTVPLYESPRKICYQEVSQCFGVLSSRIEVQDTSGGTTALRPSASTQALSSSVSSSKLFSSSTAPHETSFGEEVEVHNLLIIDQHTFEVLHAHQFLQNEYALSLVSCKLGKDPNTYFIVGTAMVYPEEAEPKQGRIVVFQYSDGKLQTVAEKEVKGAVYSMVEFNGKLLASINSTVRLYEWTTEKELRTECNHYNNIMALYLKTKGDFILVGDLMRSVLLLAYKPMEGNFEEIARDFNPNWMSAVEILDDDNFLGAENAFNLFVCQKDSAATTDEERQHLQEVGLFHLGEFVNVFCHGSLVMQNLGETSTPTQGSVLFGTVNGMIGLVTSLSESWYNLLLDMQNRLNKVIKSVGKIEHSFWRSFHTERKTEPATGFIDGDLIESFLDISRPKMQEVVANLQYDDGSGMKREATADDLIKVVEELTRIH

IKZF1 = molecular target: T4, IKZF1 (Homo sapiens, UniProt Q13422+Q96SW2); experiment: Target degradation (Western Blot) in MHH-CALL-4 cells, IKZF1; type: cell-based; conditions: 100 nM PROTAC at 24 h
T4 construct: endogenous in cells; host or cells: MHH-CALL-4
T4 sequence (Q13422 whole entry): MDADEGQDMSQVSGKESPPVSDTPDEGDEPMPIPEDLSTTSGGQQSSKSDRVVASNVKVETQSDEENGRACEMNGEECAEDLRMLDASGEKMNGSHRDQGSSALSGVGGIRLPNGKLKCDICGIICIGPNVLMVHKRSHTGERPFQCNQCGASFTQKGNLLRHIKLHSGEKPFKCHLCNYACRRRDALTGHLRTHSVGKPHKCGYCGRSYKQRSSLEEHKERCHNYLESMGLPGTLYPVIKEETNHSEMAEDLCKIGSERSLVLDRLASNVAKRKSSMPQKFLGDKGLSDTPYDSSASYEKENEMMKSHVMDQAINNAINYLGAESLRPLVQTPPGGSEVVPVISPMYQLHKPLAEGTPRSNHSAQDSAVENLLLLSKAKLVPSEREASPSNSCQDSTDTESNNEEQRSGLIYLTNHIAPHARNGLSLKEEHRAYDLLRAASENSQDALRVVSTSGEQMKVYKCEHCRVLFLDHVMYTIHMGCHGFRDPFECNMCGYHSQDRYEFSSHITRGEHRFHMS
T4 sequence (Q96SW2 whole entry): as the sequence (Q96SW2 whole entry) above
T4 sequence (Q16531 whole entry partner): as the sequence (Q16531 whole entry partner) above

[3] = In vivo pharmacokinetic (PK) study in NSG mice; design: species or system mouse; conditions: for concentration at 24 h: read-out: Clast
Method: Nontumor bearing female NSG mice (n=6), aged 8-12 weeks were dosed i.p. with single dose of compound 7 at 30 mg/kg and 100 mg/kg, respectively. Compound 7 was suspended in 60% PEG400+10% DMSO+[…] and the dosing volume is 5 ml/kg to get the target dose. For each dose, three mice were injected with a single dose and blood samples were collected at 0.5, 1, 2, 4, 8 and 24 hours by retro-orbital eye bleed technique. Blood samples ([…]) were collected and compound 7 concentration levels determined by LC-MS.

CRLF2r B-ALL xenograft = experiment: In vivo efficacy in CRLF2r B-ALL xenograft (PDX) in NSG mice; design: species or system mouse; conditions: compound 7 30 mg/kg i.p. daily
[4] = system: JAK2 and STAT5 phosphorylation; experiment: In vivo pharmacodynamics, phosphoflow of JAK-STAT signaling in engrafted leukemic cells; design: species or system mouse; conditions: 10, 30 and 100 mg/kg i.p., 2 daily doses
Method: For pharmacodynamic studies, after engraftment, mice with >50% hCD45 cells in peripheral blood were dosed with 10, 30 or 100 mg/kg i.p. of compound 7 for 2 daily doses. One hour after the second dose, mice were euthanized, and cells collected from bone marrow and spleen. For phosphoflow cytometry analysis, 0.75×10^6 bone marrow cells in 3 ml of medium were fixed by adding 1 ml of 10% formaldehyde and incubated at room temperature for 10 minutes. The cells then were spun down at 450 g for 5 minutes and resuspended in cold 95% methanol and stored at −20° C. For immunoblotting, splenic leukemia cells were purified by hCD19 MicroBeads (Miltenyi). Cells were pelleted and total protein extracted using RIPA buffer supplemented with Halt™ Protease Inhibitor Cocktail (ThermoFisher).
Cells (7.5×105) were treated with compounds in 3 ml of IMDM containing 1% BSA for one hour followed by treatment with or without 25 ng/mL TSLP (R&D systems) for 30 minutes. Cells were fixed for 10 minutes at room temperature by adding 1 ml of 10% UltraPure Formaldehyde (Polysciences), centrifuged for 5 minutes at 450 g, resuspended in 95% methanol (Electron Microscopy Sciences) and store at −20° C. […] Cells were analyzed on BD Biosciences LSR/Fortessa (BD Biosciences, Franklin Lakes, NJ) with BD FACSDiva 7.0 software followed by FlowJo v10 (Tree Star, Inc., Ashland, OR).

[5] = Tolerability (weight, blood counts) of NSG mice in the in vivo efficacy study; conditions: 28-day period, 30 mg/kg i.p. daily
Method: Female NOD.Cg-Prkdcscid Il2rgtm1Wjl/SzJ (NSG) mice aged 8-12 weeks were used for xenotransplantation. All experimental work was carried out according to Office of Laboratory Animal Welfare guidelines and was approved by Institutional Animal Care and Use Committee of St. Jude Children's Research Hospital. Mice aged 8-12 weeks were inoculated by tail vein injection with 1×10^6 leukemic cells transduced with a lentiviral vector containing the firefly luciferase and yellow fluorescent protein genes (CL20SF2-Luc2aYFP) (Sprowl, et al. (2013) Clin Pharmacol Ther. 94(5): 585-592). Leukemia burden was determined by weekly bioluminescence imaging using the Xenogen IVIS-200 system and Living Image software (Caliper Life Sciences). Treatment was commenced when luminescence averaged approximately […] photons/second. Mice were dosed with compound 7 at 30 mg/kg i.p. daily. […]. At the end of the study, cells from spleen, bone marrow and blood were harvested and stained with mouse CD45-APC-Cy7, human CD45-BV405, human CD19-PE antibodies and analyzed by flow cytometry to determine the percentage of human CD45 positive cells. For western blot, spleen leukemia cells were obtained by purification with hCD19 MicroBeads (Miltenyi biotech, Cat #130-050-301) per manufacturer's protocol. Efficacy was determined by linear regression and two-way ANOVA analysis in Prism (GraphPad Software, version 8.4.2).

[6] = system: JAK family kinases and GSPT1; experiment: In vivo pharmacodynamics, immunoblotting for Janus kinases and GSPT1 in engrafted leukemic cells; design: species or system mouse; conditions: 10, 30 and 100 mg/kg i.p., 2 daily doses
Method: Cells were washed twice with ice-cold PBS and lysed in RIPA lysis buffer (Sigma) freshly supplemented with Halt™ Protease Inhibitor Cocktail (ThermoFisher) for 15 minutes on ice. The cell pellet was removed by centrifugation at 13,000 g at 4° C. for 15 minutes. Protein concentration was measured by BCA assay (Thermo Fisher Scientific). Proteins were denatured in NuPAGE LDS 4× sample buffer supplemented with reducing agents (Invitrogen). Typically, 10-20 μg of total protein was loaded per lane on a 4%-12% NuPAGE Bis-Tris gradient gel (Invitrogen) and analyzed by standard immunoblotting and imaged using Li-COR Odyssey CLx (LI-COR Biotechnology, Lincoln, NE). Primary antibodies used were: JAK1 (Cell Signaling #3332S), JAK2 (#3230S), JAK3 (#8827S), TYK2 (#9312S), GSPT1 (#14980S), CRBN (#71810S), IKZF1 (Santa Cruz Biotechnology, SC-398265) and ACBT (Santa Cruz Biotechnology, SC-47778).
For pharmacodynamic studies, after engraftment, mice with >50% hCD45 cells in peripheral blood were dosed with 10, 30 or 100 mg/kg i.p. of compound 7 for 2 daily doses. One hour after the second dose, mice were euthanized, and cells collected from bone marrow and spleen. For phosphoflow cytometry analysis, 0.75×10^6 bone marrow cells in 3 ml of medium were fixed by adding 1 ml of 10% formaldehyde and incubated at room temperature for 10 minutes. […]

[7] = NSG mice, single dose i.p. 30 mg/kg, per mouse, 30 mg/kg
[8] = NSG mice, single dose i.p. 100 mg/kg, per mouse, 100 mg/kg
[9] = female, NSG, mouse, plasma, ip, 30 mg/kg, NSG mice, single dose i.p. 30 mg/kg, per mouse

CCCn1cc(-c2nc(Nc3ccc(C(=O)NCCCCNc4cccc5c4C(=O)N(C4CCC(=O)NC4=O)C5=O)cc3)nc3[nH]ccc23)cn1 (stereo not shown) [Compound 7]
Kd (JAK2 [1]): 0.3 nM and 0.34 nM
Target Degradation (Western Blot) JAK2 (JAK2 [2]): 2 (2 = Medium (20-40% degradation at 24 h))
degradation of GSPT1 (in words) (GSPT1): degradation of GSPT1 was observed
Target Degradation (Western Blot) GSPT1 (GSPT1): 3 (3 = Strong (>60% degradation at 24 h))
Target Degradation (Western Blot) IKZF1 (IKZF1): 3 (3 = Strong (>60% degradation at 24 h))
plasma concentration after 24 hours ([3]; 30 and 100 mg/kg, intraperitoneal dosing): well above the compounds cellular EC50 value
Tlast ([3]; NSG mice, single dose i.p. 30 mg/kg, per mouse): 24 h
AUClast [3, 7]: 1759.1 ng·h/mL and 2248.2 ng·h/mL
Clast [3, 7]: 53 ng/mL and 74.3 ng/mL
Cmax [3, 7]: 125.8 ng/mL and 155.3 ng/mL
Tlast ([3]; NSG mice, single dose i.p. 100 mg/kg, per mouse): 24 h
AUClast [3, 8]: 1884.7 ng·h/mL and 2179.3 ng·h/mL and 4459 ng·h/mL
Clast [3, 8]: 79.1 ng/mL and 152 ng/mL
Cmax [3, 8]: 181.3 ng/mL and 233.2 ng/mL and 410.5 ng/mL
AUC(0-t) [3, 9]: 1350 ng·h/mL
concentration at 24 h [3, 9]: 45.5 ng/mL
Cmax ([3]; female, NSG, mouse, plasma, ip, 30 mg/kg, NSG mice, single dose i.p. 30 mg/kg, per mouse, read-out: Cmax): 115 ng/mL
concentration at 24 h ([3]; female, NSG, mouse, plasma, ip, 100 mg/kg, NSG mice, single dose i.p. 100 mg/kg, per mouse): 98.1 ng/mL
spleen size and tumor burden in PDX model (CRLF2r B-ALL xenograft): reduced spleen size and tumor burden
leukemia burden / leukemic cell proliferation in CRLF2r B-ALL xenograft (CRLF2r B-ALL xenograft; ruxolitinib 50 mg/kg oral gavage twice daily, 28-day dosing period): marked reduction in leukemia burden; also recorded: slowed leukemia growth
inhibition of JAK2 and STAT5 phosphorylation in vivo [4]: dose dependent inhibition
tolerability: weight and blood counts [5]: well tolerated with no weight loss or perturbation in blood counts
JAK/GSPT1 degradation in vivo [6]: near maximal at the 30 mg/kg dose

N#CC[C@H](C1CCCC1)n1cc(-c2nc(Nc3ccc(C(=O)NCCCCNc4cccc5c4C(=O)N(C4CCC(=O)NC4=O)C5=O)cc3)nc3[nH]ccc23)cn1 (stereo partly shown) [Compound 5]
Kd (JAK2 [1]): 0.63 nM
Target Degradation (Western Blot) JAK2 (JAK2 [2]): 3 (3 = Strong (>60% degradation at 24 h))
degradation of GSPT1 (in words) (GSPT1): degradation of GSPT1 was observed
Target Degradation (Western Blot) GSPT1 (GSPT1): 3 (3 = Strong (>60% degradation at 24 h))
Target Degradation (Western Blot) IKZF1 (IKZF1): 3 (3 = Strong (>60% degradation at 24 h))
